{
  "source": "patent US11085053B2",
  "about": "“Efficient selectivity of recombinant proteins” (REGENERON PHARMACEUTICALS, INC., priority 2014, dated 2021)",
  "test_system": "Modified CHO K1 cells",
  "test": "Selection efficiency of transfectant cells by FACS (GFP+ population)",
  "format": "cell-based, Chinese hamster",
  "excerpt": "Modified CHO K1 cells were transfected with a plasmid vector containing CHO-GPT (SEQ ID NO: 2), human GPT (SEQ ID NO:12) or a plasmid vector containing a hygromycin phosphotransferase (Hpt, Hygromycin resistant gene); e.g. the selectable marker gene (CHO-GPT or hpt) was transcriptionally linked to a downstream eGFP gene via an IRES sequence, in their respective vectors. For example, each plasmid was constructed to contain the following gene sequences, in 5′ to 3′ direction: a Lox site, a SV40 late promoter, either CHO-GPT (or Hpt), IRES, enhanced green fluorescent protein (eGFP), and a second Lox site. Purified recombinant plasmids were transfected together with a plasmid that expresses Cre recombinase, into a modified CHO host cell line containing: from 5′ to 3′, a lox site, YFP, and a second lox site, at a transcriptionally active locus. Consequently, the host CHO cell can be isolated by flow cytometry as a green-positive or a yellow-negative cell. […]\nCell populations were either incubated with 0, 1 μg/ml, 2.5 μg/ml or 5 μg/ml tunicamycin (Tn) or 400 μg hygromycin (Hyg), as outlined in Table 2. Observed recombinant populations (ORPs) were measured by fluorescent-activated cell sorting (FACS) analysis. Cells were sorted to quantitate each population of cells, and selection efficiency was calculated for cells expressing only GFP and not YFP (FIG. 4 or 5). […]",
  "data": [
    {"substance": "tunicamycin", "values": [
      {"measurement": "Selection efficiency compared with hygromycin selection", "value": "as efficient as hygromycin selection"}
    ]}
  ]
}
